Measured values: patent publication US20140044709A1, “TREATMENT OF HER2-POSITIVE CANCER WITH PACLITAXEL AND TRASTUZUMAB-MCC-DM1” (priority 2010, published 2014)
Where two headings read alike, the source gives them in different places.

Experiments:
patients with MBC = settings: single agent, cited from earlier work
[1] = tested on: patients with HER2-positive MBC
[2] = tested on: patients with HER2-positive MBC; remark: listed apart in the source
Excerpt: Patients with confirmed HER2-positive MBC whose disease had progressed on multiple lines of therapy, including HER2-directed therapy, were eligible.
Preliminary data in 112 evaluable patients are also available from the Phase II study.

[3] = Pertuzumab PK studies (Phase Ia and II); assay type: in vivo, human
Excerpt: A two-compartment model adequately described the concentration-time data with a terminal half-life of approximately 17 days for a typical patient.
Population PK modeling of data from Phase Ia and II studies supports the continued use of fixed non-weight based dosing in female patients.

patients with cancer [4] = assay: Pooled Phase II trials of single-agent pertuzumab, safety; assay type: in vivo, human
patients with cancer [5] = assay: Pertuzumab across all studies, symptomatic cardiac failure; assay type: in vivo, human; settings: 4 of 842 patients across all studies
Excerpt: Two of these patients had MBC and had received prior anthracyclines and two patients had ovarian cancer patients, one of whom had cardiac risk factors (hypertension/hyperlipidemia).

patients with cancer [6] = assay: Completed Phase Ib combination studies of pertuzumab, LVEF; assay type: in vivo, human; settings: 2/35 patients
Excerpt: Grade 3-4 adverse events have been less frequently reported, with the more frequent events being Grade 3 diarrhea (5%), Grade 3 vomiting (2%), and Grade 3 nausea (<1%). Asymptomatic decreases in LVEF have been reported as adverse events in 14% of patients and were mainly (−70%) Grade 1 events.

[7] = subgroup with at least 6 months of follow-up or discontinued (n=76)
[8] = pooled Phase II single agent (n=353), generally Grade 1-2

CC(=O)O[C@H]1C(=O)[C@@]2(C)[C@H]([C@H](OC(=O)c3ccccc3)[C@]3(O)C[C@H](OC(=O)[C@H](O)[C@@H](NC(=O)c4ccccc4)c4ccccc4)C(C)=C1C3(C)C)[C@]1(OC(C)=O)CO[C@@H]1C[C@@H]2O (relative stereo) [paclitaxel, β-(benzoylamino)-α-hydroxy-,6,12b-bis (acetyloxy)-12-(benzoyloxy)-2a,3,4,4a,5,6,9,10,11,12,12a,12b-dodecahydro-4,11-dihydroxy-4a,8,13,13-tetramethyl-5-oxo-7,11-methano-1H-cyclodeca(3,4)benz(1,2-b) oxet-9-ylester,(2aR-(2a-α,4-β,4a-β,6-β,9-α (α-R*,β-S*),11-α,12-α,12a-α,2b-α))-benzenepropanoic acid]
response rates (patients with MBC; first-line treatment of MBC): 29-63% | response rates (patients with MBC; second-line treatment of MBC): 21-56%

T-DM1
responses ([1]; 1.2 mg/kg weekly (n=3)): three | responses ([1]; 1.6 mg/kg weekly (n=3)): two | responses ([1]; 2.0 mg/kg weekly (n=3)): two | ORR in patients with measurable disease and confirmed HER2 status by central review ([1]; every 3-week schedule, 5/11): 46% | 6-month clinical benefit rate (CR+PR+SD>6 months) ([1]; every 3-week schedule, 13/24): 54% | objective response rate (ORR) ([1]; every-3-week schedule, 24 patients): 21% | responses confirmed according to RECIST ([1]; every-3-week schedule, of six responses): five | ORR in patients with measurable disease and confirmed HER2 status by central review ([1]; weekly schedule, 7/15): 47% | 6-month clinical benefit rate (CR+PR+SD>6 months) ([1]; weekly schedule, 18/28): 64% | objective response rate (ORR) ([1]; weekly schedule, 28 patients): 54% | responses confirmed according to RECIST ([1]; weekly schedule, of 15 responses): 13 | objective responses confirmed by follow-up imaging ([2]; 107 efficacy-evaluable patients, 29 responses): 27.1% | objective responses (CRs and PRs) ([2]; 107 efficacy-evaluable patients, 42 responses): 39.3% | response rate [2, 7]: 43.4% | response rate confirmed by follow-up imaging [2, 7]: 38.2%

pertuzumab: humanized monoclonal antibody that binds to extracellular domain II of HER2 and blocks its ability to dimerize with other HER receptors
attaining steady-state trough and peak concentrations ([3]; loading dose 840 mg followed by 420 mg every 3 weeks): by the second cycle | terminal half-life ([3]; two-compartment model, typical patient): approximately 17 days | asymptomatic decreases in LVEF reported as adverse events (patients with cancer [4]; % of patients): 14% | LVEF declines of ≧10% to <50% (patients with cancer [4]; completed Phase II single-agent studies, 21/302 patients): 7% | Grade 3 diarrhea (patients with cancer [4]; pooled Phase II single agent): 5% | Grade 3 nausea (patients with cancer [4]; pooled Phase II single agent): < 1% | Grade 3 vomiting (patients with cancer [4]; pooled Phase II single agent): 2% | abdominal pain (patients with cancer [4]; [8]): 24% | diarrhea (patients with cancer [4]; [8]): 58% | fatigue (patients with cancer [4]; [8]): 32% | nausea (patients with cancer [4]; [8]): 31% | rash (patients with cancer [4]; [8]): 17% | vomiting (patients with cancer [4]; [8]): 22% | tolerability (patients with cancer [4]; single agent, five Phase II studies): well tolerated | symptomatic cardiac failure events (patients with cancer [5]): 0.5% | LVEF declines of ≧10% to <50% (patients with cancer [6]): 6%
